Laboratory results taken from patent US20180200232A1, “PHARMACEUTICAL COMPOSITIONS USEFUL FOR THE TREATEMENT OF TISSUE INJURY” (MedRegen, LLC, priority 2015, published 2018).
Where “and” joins values, the source holds several entries; their conditions need not be identical. Equal entries are not always repeated.

Key:
[1] = system: colony forming cells (CFCs) in mobilized peripheral blood; experiment: CFC assay for stem cell mobilization activity in mice; assay type: in vivo, C57/B6 mice; settings: peripheral blood 3 hours after drug treatment; AMD3100 1.0 mg/kg, Tacrolimus 0.1 mg/kg; vs saline (FIG. 1)
Text: Hematopoietic colony-forming cell (CFC) assays have been used extensively for research and clinical applications in humans and animal models as a way of quantifying and assessing the hematopoietic progenitor content of a cell sample. The stem cell mobilization activity can be measured by using CFC assays in mobilized peripheral blood samples. CFCs are able to divide and differentiate into a colony of more mature cells that can be detected by light microscopy. This allows for the quantification of multipotent stem cell lineages mobilized by pharmaceutical agents.
C57/B6 mice were divided into four treatment groups: 1) control group treated with saline; 2) AMD3100 group (1.0 mg/kg); (3) Tacrolimus group treated with
low-dose (0.1 mg/kg); and (4) AF Combination (containing AMD3100 and Tacrolimus). […] Viable PBMCs were counted and mixed with Methocult GF methylcellulose medium (StemCell Technologies, Vancouver, BC, Canada; Cat.: 03444) containing 100 Uml penicillin and 100 μg/ml streptomycin to give a final density of 1×10^5 viable PBMCs/1.5 ml of medium. […] Colony-forming units (CFUs) were counted using an inverted microscope (Carl Zeiss Microscopy, Thornwood, N.Y.) at ×4. The number of CFUs was determined by dividing the number of viable cells per milliliter by the number of plated cells per well and multiplying by the number of counted CFUs/well.

[2] = solubility of Tacrolimus powder in water solutions; assay type: physicochemical
[3] = system: renal allograft rejection; experiment: mismatched kidney transplantation in miniature swine; assay type: in vivo; settings: for Survival: one animal per value; for Creatinine (serum): at time of death; for effect on survival: drug alone; for post-operative day of death or euthanasia: single perioperative course
Text: Animals—SLA-identified donor and recipient swine (weight 50-80 kg) were obtained from Transplantation Biology Research Center of Massachusetts General Hospital, Boston, Mass. The immunogenetic characteristics of these swine have been described previously (30). Two-haplotype full MHC class I and class II mismatched donors and recipients were used for kidney transplantation. […] Institutional review board (Animal Care and Use Committee) approval was obtained for this study. All animal care and procedures were in compliance with the “Principles of Laboratory Animal Care” formulated by the National Society of Medical Research and the “Guide for the Care and Use of Laboratory Animals” prepared by the Institute of Laboratory Animal Resources, National Research Council, and published by the National Academies Press, revised 2011.
Kidney transplantation—The surgical procedure used for kidney transplantation has been described in Kirkman R L, et al. Transplantation in miniature swine. VI. Factors influencing survival of renal allografts. Transplantation 1979; 28: 18-23, the entire disclosure of which is herein incorporated by reference. Briefly, donor kidneys were flushed and persevered in cold saline for 3-6 h before reperfusion. The recipients underwent bilateral nephrectomy. […] The kidney transplantation was completed with a vesicoureteral anastomosis. An indwelling Silastic central venous catheter was placed surgically into the external or internal jugular vein. The catheter facilitated frequent blood sampling for in vitro assays and for monitoring of renal function and whole-blood Tacrolimus levels.
Rejection monitoring—Kidney function was monitored by serial serum creatinine levels. Serum creatinine and blood urea nitrogen levels were analyzed in the Phenotyping Laboratory of the Department of Comparative Medicine at Johns Hopkins. Biopsies were performed on transplant recipients using needle core biopsy via an open or percutaneous ultrasound-guided approach. Renal allograft rejection was defined as sustained rise in serum creatinine to >10 mg/dL or anuria (normal laboratory value for swine serum creatinine is 1-3 mg/dL).
Histopathological examination—Core needle biopsies or wedge biopsies were performed on renal allografts. Scoring of acute rejection was based on the Banff classification; see, e.g., Solez K, et al. Banff 07 classification of renal allograft pathology: Updates and future directions. Am J Transplant 2008; 8: 753-760, the entire disclosure of which is herein incorporated by reference. Masson trichrome staining was done according to standard protocols.
SLA-identified and -mismatched inbred miniature swine were subjected to bilateral nephrectomy and transplantation (FIG. 1B) as described in Sachs D H, et al. Transplantation in miniature swine. I. Fixation of the major histocompatibility complex. Transplantation 1976; 22: 559-567, the entire disclosure of which is herein incorporated by reference. […] VI. Factors influencing survival of renal allografts. Transplantation 1979; 28: 18-23, supra. Five experimental treatment groups were defined as follows, and each group received subcutaneous injections on days 0, 2, 4, 6, and 8 post-transplantation: (1) saline (n=1); (2) low-dose (0.03 mg/kg) Tacrolimus alone (n=3); (3) AMD3100 1 mg/kg alone (n=3); (4) AF Combination treatment (AMD3100 1 mg/kg and Tacrolimus 0.03 mg/kg) (n=1); and (5) AF Combination treatment as in group 4 but with repeat of the 8-day course at 1, 2, and 3 months post-transplantation.

[4] = target: CXCR4 chomokin receptor (Homo sapiens, UniProt P61073); settings: read-out: IC50, binds to and inhibits the CXCR4 receptor; cited from earlier work
Sequence of CXCR4 chomokin receptor (P61073 whole entry): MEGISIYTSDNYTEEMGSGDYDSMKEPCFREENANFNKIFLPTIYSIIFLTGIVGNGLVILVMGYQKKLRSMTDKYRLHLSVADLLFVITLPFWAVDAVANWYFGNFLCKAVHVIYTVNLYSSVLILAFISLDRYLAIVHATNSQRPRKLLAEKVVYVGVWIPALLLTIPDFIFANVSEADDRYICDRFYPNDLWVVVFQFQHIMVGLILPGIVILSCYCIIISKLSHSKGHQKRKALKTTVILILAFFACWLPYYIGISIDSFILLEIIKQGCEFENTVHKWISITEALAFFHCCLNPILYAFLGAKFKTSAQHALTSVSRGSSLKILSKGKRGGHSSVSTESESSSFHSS

[5] = system: cell migration stimulated by CXCL12; settings: cited from earlier work

Row | Molecule | number of colony forming cells (CFCs) [1] | solubility in water solutions (e.g., saline) [2] | Survival ([3]; Re-Treatment Yes) | serum creatinine level ([3]; animal 21343, POD 40 after repeat dosing) | serum creatinine level ([3]; animal 21343, POD 56) | serum creatinine level ([3]; animal 21343, before effect of repeat dosing at 1 month) | Creatinine (serum) ([3]; Re-Treatment Yes) | Creatinine (serum) ([3]; no re-treatment, listed as Tacro only) | effect on survival [3] | effect on survival ([3]; listed as FK506) | Survival ([3]; no re-treatment, s.c. days 0, 2, 4, 6, 8, listed as Tacro only) | post-operative day of death ([3]; redosing at 30 days) | post-operative day of death or euthanasia [3] | IC50 [4] | IC50 [5] | Creatinine (serum) ([3]; no re-treatment, listed as AMD3100 only) | Survival ([3]; no re-treatment, s.c. days 0, 2, 4, 6, 8, listed as AMD3100 only)
1 | C=CC[C@@H]1/C=C(\C)C[C@H](C)C[C@H](OC)[C@H]2O[C@@](O)(C(=O)C(=O)N3CCCC[C@H]3C(=O)O[C@H](/C(C)=C/[C@@H]3CC[C@@H](O)[C@H](OC)C3)[C@H](C)[C@@H](O)CC1=O)[C@H](C)C[C@@H]2OC [Tacrolimus] | significantly increased | poor solubility | 56 days | 8.3 mg/dL | 9.8 mg/dL | 12.3 mg/dL | 9.8 mg/dL | 11.5 mg/dL and 9.9 mg/dL | prolongation of survival | prolonged survival but was ineffective against late rejection | 28 days and 27 days | 56 POD | 27 POD and 28 POD |  |  |  | 
2 | 4F-benzoyl-TN14003 [BKT140] |  |  |  |  |  |  |  |  |  |  |  |  |  | ~1 nM |  |  | 
3 | c1cc(CN2CCCNCCNCCCNCC2)ccc1CN1CCCNCCNCCCNCC1 [AMD3100, 1,1′-[1,4-phenylenebis(methylene)]bis¬1,4,8,11-tetraazacyclo-tetradecane] | significantly increased |  |  |  |  |  |  |  | no prolongation of survival |  |  |  | 9 POD and 10 POD and 16 POD |  | 51 ± 17 nM | 22.3 mg/dL and 17.3 mg/dL and 26.4 mg/dL | 10 days and 16 days and 9 days
